{
  "source": "ChEMBL document CHEMBL5233249",
  "about": "“Recent advancements in the development of heterocyclic anti-inflammatory agents” (Eur J Med Chem, 2020)",
  "key": {"Rattus norvegicus [1]": {"system": "Rattus norvegicus", "test": "Anti-inflammatory activity against formalin-induced foot paw edema in PO dosed rat at 10 mg/kg assessed as inhibition of edema measured after 4 hr relative to control", "format": "functional"}, "Rattus norvegicus [2]": {"system": "Rattus norvegicus", "test": "Anti-inflammatory activity against formalin-induced foot paw edema in PO dosed rat at 10 mg/kg assessed as inhibition of edema measured after 5 hr relative to control", "format": "functional", "design": "scale not given: the % may be the effect or the level left"}, "Rattus norvegicus [3]": {"system": "Rattus norvegicus", "test": "Anti-ulcerative activity in aspirin induced Wistar rat ulcer model assessed as inhibition of ulcer index at 20 mg/kg,po", "format": "functional"}, "Rattus norvegicus [4]": {"system": "Rattus norvegicus", "test": "Anti-inflammatory activity in Wistar rat assessed as reduced hind paw edema at 25 mg/kg relative to control", "format": "functional", "design": "scale not given: the % may be the effect or the level left"}, "Rattus norvegicus [5]": {"system": "Rattus norvegicus", "test": "Anti-ulcerative activity in Carrageenan-induced Sprague-Dawley rat ulcer model assessed as inhibition of ulcer index at 10 mg/kg,po", "format": "functional"}, "Mus musculus [6]": {"system": "Mus musculus", "test": "Anti-inflammatory activity in Carrageenan-induced paw edema in […] mouse model assessed as inhibition of edema at 200 mg/kg, po relative to control", "format": "functional", "design": "scale not given: the % may be the effect or the level left"}, "Mus musculus [7]": {"system": "Mus musculus", "test": "Anti-inflammatory activity in Carrageenan-induced paw edema mouse model assessed as inhibition of granuloma measured after 24 hrs relative to control", "format": "functional"}, "Rattus norvegicus [8]": {"system": "Rattus norvegicus", "test": "Anti-inflammatory activity against formalin-induced foot paw edema in Wistar rat at 5 mg/kg, po assessed as inhibition of edema measured after 4 hr relative to control", "format": "functional"}, "Rattus norvegicus [9]": {"system": "Rattus norvegicus", "test": "Anti-inflammatory activity in Carageenan-induced paw edema Wistar rat model assessed as reduction in paw edema volume relative to control", "format": "functional", "design": "scale not given: the % may be the effect or the level left"}, "Mus musculus [10]": {"system": "Mus musculus", "test": "Anti-inflammatory activity against dimethylbenzene-induced auricular edema Kunming mouse model assessed as inhibition of ear edema at 50 mg/kg, po administered once daily relative to control", "format": "functional", "design": "scale not given: the % may be the effect or the level left"}, "Mus musculus [11]": {"system": "Mus musculus", "test": "Anti-inflammatory activity against dimethylbenzene-induced auricular edema Kunming mouse model assessed as inhibition of ear edema at 100 mg/kg, po administered once daily relative to control", "format": "functional", "design": "scale not given: the % may be the effect or the level left"}, "[12]": {"test": "Selectivity index, ratio of IC50 for ovine COX1 to IC50 for recombinant human COX2"}, "Rattus norvegicus [13]": {"system": "Rattus norvegicus", "test": "Anti-inflammatory activity against formalin-induced foot paw edema in PO dosed rat at 10 mg/kg assessed as reduction in volume of edema measured after 5 hr relative to control", "format": "functional", "design": "scale not given: the % may be the effect or the level left"}, "Rattus norvegicus [14]": {"system": "Rattus norvegicus", "test": "Anti-inflammatory activity in Carrageenan-induced-Wistar albino rat model assessed as reduction in volume of paw edema measured after 4 hrs", "format": "functional"}, "Rattus norvegicus [15]": {"system": "Rattus norvegicus", "test": "Anti-inflammatory activity against Carrageenan-induced paw edema in PO dosed Wistar albino rat assessed as fold increase in inhibition of […] measured after 1 hr relative to celecoxib", "format": "functional"}, "RAW264.7 [16]": {"system": "RAW264.7", "test": "Anti-inflammatory activity in mouse RAW264.7 cells assessed as inhibition of LPS-induced TNFalpha production relative to control", "format": "functional", "design": "scale not given: the % may be the effect or the level left"}, "RAW264.7 [17]": {"system": "RAW264.7", "test": "Anti-inflammatory activity in mouse RAW264.7 cells assessed as inhibition of LPS-induced IL-6 production preincubated for 1 hr followed by LPS addition and measured after 24 hrs by EIA relative to control", "format": "functional", "design": "scale not given: the % may be the effect or the level left"}, "Rattus norvegicus [18]": {"system": "Rattus norvegicus", "test": "Anti-ulcerative activity in Carrageenan-induced paw edema Swiss albino rat ulcer model assessed as inhibition of ulcer index at 10 mg/kg,po", "format": "functional"}, "Mus musculus [19]": {"system": "Mus musculus", "test": "Analgesic activity in PO dosed Swiss albino mouse assessed as protection of paw edema measured after 2 hrs at 20 mg/kg relative to control", "format": "functional"}, "Mus musculus [20]": {"system": "Mus musculus", "test": "Anti-inflammatory activity in Swiss albino mouse of Carrageenan-induced paw edema assessed as reduction in inflammation at 100 mg/kg measured after 1 hr relative to control", "format": "functional", "design": "scale not given: the % may be the effect or the level left"}, "Mus musculus [21]": {"system": "Mus musculus", "test": "Anti-inflammatory activity in Swiss albino mouse of Carrageenan-induced paw edema assessed as reduction in paw edema at 100 mg/kg measured after 1 hr (reference value: 142.5 +/- 5.6 uL)", "format": "functional"}, "Mus musculus [22]": {"system": "Mus musculus", "test": "Anti-inflammatory activity in Swiss albino mouse of Carrageenan-induced paw edema assessed as reduction in inflammation at 100 mg/kg measured after 2 hr relative to control", "format": "functional", "design": "scale not given: the % may be the effect or the level left"}, "Mus musculus [23]": {"system": "Mus musculus", "test": "Anti-inflammatory activity in Swiss albino mouse of Carrageenan-induced paw edema assessed as reduction in paw edema at 100 mg/kg measured after 2 hr (reference value: 140 +/- 6.3 uL)", "format": "functional"}, "Mus musculus [24]": {"system": "Mus musculus", "test": "Anti-inflammatory activity in Swiss albino mouse of Carrageenan-induced paw edema assessed as reduction in inflammation at 100 mg/kg measured after 3 hr relative to control", "format": "functional", "design": "scale not given: the % may be the effect or the level left"}, "Mus musculus [25]": {"system": "Mus musculus", "test": "Anti-inflammatory activity in Swiss albino mouse of Carrageenan-induced paw edema assessed as reduction in paw edema at 100 mg/kg measured after 3 hr (reference value: 130 +/- 3.8 uL)", "format": "functional"}, "Mus musculus [26]": {"system": "Mus musculus", "test": "Anti-inflammatory activity in Swiss albino mouse of Carrageenan-induced paw edema assessed as reduction in inflammation at 100 mg/kg measured after 4 hr relative to control", "format": "functional", "design": "scale not given: the % may be the effect or the level left"}, "Mus musculus [27]": {"system": "Mus musculus", "test": "Anti-inflammatory activity in Swiss albino mouse of Carrageenan-induced paw edema assessed as reduction in paw edema at 100 mg/kg measured after 4 hr (reference value: 126.7 +/- 6.9 uL)", "format": "functional"}, "Mus musculus [28]": {"system": "Mus musculus", "test": "Anti-inflammatory activity in Swiss albino mouse of Carrageenan-induced pleurisy assessed as reduction in total leukocytes at 50 mg/kg, po relative to control", "format": "functional", "design": "scale not given: the % may be the effect or the level left"}, "Mus musculus [29]": {"system": "Mus musculus", "test": "Anti-inflammatory activity in Swiss albino mouse of Carrageenan-induced pleurisy assessed as reduction in migration of leukocytes at 100 mg/kg, po relative to control", "format": "functional", "design": "scale not given: the % may be the effect or the level left"}, "Mus musculus [30]": {"system": "Mus musculus", "test": "Anti-inflammatory activity in Swiss albino mouse of Carrageenan-induced pleurisy assessed as reduction in migration of leukocytes at 100 mg/kg, po (reference value: 5.2 +/- 0.34)", "format": "functional"}, "Mus musculus [31]": {"system": "Mus musculus", "test": "Anti-inflammatory activity in Swiss albino mouse of Carrageenan-induced pleurisy assessed as reduction in TNFalpha levels at 100 mg/kg, po", "format": "functional"}, "Rattus norvegicus [32]": {"system": "Rattus norvegicus", "test": "Analgesic activity in Carrageenan- induced paw edema in PO dosed Swiss albino rat assessed as protection of hind paw measured after 2 hrs at 20 mg/kg relative to control", "format": "functional"}},
  "data": [
    {"smiles": "Cc1ccc(-c2cc(C(F)(F)F)nn2-c2ccc(S(N)(=O)=O)cc2)cc1", "note": "[CELECOXIB]", "values": [
      {"measurement": "inhibition in vivo at 10 mg/kg", "setting": "Rattus norvegicus [1]", "result": 46.4, "unit": "%"},
      {"measurement": "Activity", "setting": "Rattus norvegicus [2]", "result": 69, "unit": "%"},
      {"measurement": "UI", "setting": "Rattus norvegicus [3]", "result": 2.99},
      {"measurement": "Activity", "setting": "Rattus norvegicus [4]", "result": 57.14, "unit": "%"},
      {"measurement": "UI", "setting": "Rattus norvegicus [5]", "result": 2.93},
      {"measurement": "Activity", "setting": "Mus musculus [6]", "result": 17.5, "unit": "%"},
      {"measurement": "inhibition (INH)", "setting": "Mus musculus [7]", "result": 8.6, "unit": "%"},
      {"measurement": "inhibition in vivo at 5 mg/kg", "setting": "Rattus norvegicus [8]", "result": 46.4, "unit": "%"},
      {"measurement": "Activity", "setting": "Rattus norvegicus [9]", "result": 87.59, "unit": "%"},
      {"measurement": "Activity", "setting": "Mus musculus [10]", "result": 79, "unit": "%"},
      {"measurement": "Activity", "setting": "Mus musculus [11]", "result": 36, "unit": "%"}
    ]},
    {"smiles": "CS(=O)(=O)c1ccc(-n2cc(/C=C3\\NC(=S)N(c4ccccc4)C3=O)c(-c3ccccc3)n2)cc1", "values": [
      {"measurement": "Selectivity Index", "setting": "[12]", "result": 9.15},
      {"measurement": "Activity", "setting": "Rattus norvegicus [13]", "result": 56, "unit": "%"},
      {"measurement": "UI", "setting": "Rattus norvegicus [3]", "result": 3.87}
    ]},
    {"smiles": "Cc1nn(-c2ccccc2)c2c1C(c1ccccc1[N+](=O)[O-])C(C#N)=C(/N=C/c1ccccc1)O2", "note": "(stereo unspecified)", "values": [
      {"measurement": "ED50", "setting": "Rattus norvegicus [14]", "result": 858, "unit": "µmol/kg"}
    ]},
    {"smiles": "c1ccc([Se]CC2CC(c3ccccc3)=NO2)cc1", "note": "(stereo unspecified)", "values": [
      {"measurement": "Activity", "setting": "Mus musculus [10]", "result": 51, "unit": "%"},
      {"measurement": "Activity", "setting": "Mus musculus [11]", "result": 74, "unit": "%"}
    ]},
    {"smiles": "Nc1cc(-c2ccc(Cl)cc2)nn1C1=NC2C(C=NN2c2ccccc2)C(=O)N1c1ccccc1", "note": "(stereo unspecified)", "values": [
      {"measurement": "inhibition in vivo at 10 mg/kg", "setting": "Rattus norvegicus [1]", "result": 90, "unit": "%"},
      {"measurement": "fold change (FC)", "setting": "Rattus norvegicus [15]", "result": 8}
    ]},
    {"smiles": "O=c1[nH]c(CCl)nc2sc3c(c12)CCCC3", "values": [
      {"measurement": "Activity", "setting": "RAW264.7 [16]", "result": 10, "unit": "%"},
      {"measurement": "Activity", "setting": "RAW264.7 [17]", "result": 90, "unit": "%"}
    ]},
    {"smiles": "CC1=NN(c2ccc(Cl)cc2)C(=O)/C1=N\\Nc1ccc(-c2nc3ccccc3[nH]2)cc1", "values": [
      {"measurement": "UI", "setting": "Rattus norvegicus [18]", "result": 0.53},
      {"measurement": "Activity", "setting": "Mus musculus [19]", "result": 67, "unit": "%"}
    ]},
    {"smiles": "CN1CCN(C(=O)c2cnn(-c3ccccc3)c2)CC1", "values": [
      {"measurement": "Activity", "setting": "Mus musculus [20]", "result": 19, "unit": "%"},
      {"measurement": "Activity", "setting": "Mus musculus [21]", "result": 115.7, "unit": "µL"},
      {"measurement": "Activity", "setting": "Mus musculus [22]", "result": 37, "unit": "%"},
      {"measurement": "Activity", "setting": "Mus musculus [23]", "result": 88.6, "unit": "µL"},
      {"measurement": "Activity", "setting": "Mus musculus [24]", "result": 34, "unit": "%"},
      {"measurement": "Activity", "setting": "Mus musculus [25]", "result": 85.7, "unit": "µL"},
      {"measurement": "Activity", "setting": "Mus musculus [26]", "result": 39, "unit": "%"},
      {"measurement": "Activity", "setting": "Mus musculus [27]", "result": 77.1, "unit": "µL"},
      {"measurement": "Activity", "setting": "Mus musculus [28]", "result": 34.5, "unit": "%"},
      {"measurement": "Activity", "setting": "Mus musculus [29]", "result": 36.5, "unit": "%"},
      {"measurement": "Activity", "setting": "Mus musculus [30]", "result": 3.3},
      {"measurement": "Activity", "setting": "Mus musculus [31]", "result": 2.6}
    ]},
    {"smiles": "CC1=NN(c2ccc(F)cc2)C(=O)/C1=N\\Nc1ccc(-c2nc3ccccc3[nH]2)cc1", "values": [
      {"measurement": "Activity", "setting": "Rattus norvegicus [32]", "result": 65, "unit": "%"}
    ]}
  ]
}
